Data from ChEMBL document CHEMBL2029212, “Discovery of 1,4-disubstituted 3-cyano-2-pyridones: a new class of positive allosteric modulators of the metabotropic glutamate 2 receptor” (J Med Chem, 2012).

Legend:
[1] = target: T1, Metabotropic glutamate receptor 2 (Homo sapiens, UniProt Q14416); test: Positive allosteric modulation of human mGlu2 receptor expressed in CHO cells assessed as glutamate-induced [35S]GTPgammaS binding after 30 mins by liquid scintillation counting; type: functional, cell-based
Target sequence in this assay (Q14416 whole entry): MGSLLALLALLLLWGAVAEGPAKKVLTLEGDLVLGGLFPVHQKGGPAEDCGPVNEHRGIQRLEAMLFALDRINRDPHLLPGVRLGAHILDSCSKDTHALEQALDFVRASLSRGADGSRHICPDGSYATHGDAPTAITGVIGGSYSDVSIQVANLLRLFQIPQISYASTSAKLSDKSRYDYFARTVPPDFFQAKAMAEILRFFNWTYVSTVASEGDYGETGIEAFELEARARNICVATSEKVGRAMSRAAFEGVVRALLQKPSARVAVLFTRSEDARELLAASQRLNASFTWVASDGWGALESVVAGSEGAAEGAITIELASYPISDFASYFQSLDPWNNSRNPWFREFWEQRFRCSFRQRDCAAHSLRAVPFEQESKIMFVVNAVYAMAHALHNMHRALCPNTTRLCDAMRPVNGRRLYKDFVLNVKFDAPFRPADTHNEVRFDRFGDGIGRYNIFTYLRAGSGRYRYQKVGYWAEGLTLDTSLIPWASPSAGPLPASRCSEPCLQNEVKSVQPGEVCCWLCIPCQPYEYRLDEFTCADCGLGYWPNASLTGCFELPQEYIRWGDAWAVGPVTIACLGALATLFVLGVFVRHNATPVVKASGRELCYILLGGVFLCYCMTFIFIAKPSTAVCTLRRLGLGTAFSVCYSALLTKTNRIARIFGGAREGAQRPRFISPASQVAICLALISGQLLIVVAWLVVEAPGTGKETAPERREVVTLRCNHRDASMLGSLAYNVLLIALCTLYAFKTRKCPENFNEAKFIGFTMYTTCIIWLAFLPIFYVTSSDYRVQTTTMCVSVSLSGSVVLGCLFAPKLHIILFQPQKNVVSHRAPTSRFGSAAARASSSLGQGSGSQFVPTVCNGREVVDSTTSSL

[2] = target: T1, Metabotropic glutamate receptor 2; test: Positive allosteric modulation of human mGlu2 receptor expressed in CHO cells assessed as glutamate-induced [35S]GTPgammaS binding after 30 mins by liquid scintillation counting relative to glutamate; type: functional, cell-based
Target sequence in this assay (Q14416 19-872 limits assumed): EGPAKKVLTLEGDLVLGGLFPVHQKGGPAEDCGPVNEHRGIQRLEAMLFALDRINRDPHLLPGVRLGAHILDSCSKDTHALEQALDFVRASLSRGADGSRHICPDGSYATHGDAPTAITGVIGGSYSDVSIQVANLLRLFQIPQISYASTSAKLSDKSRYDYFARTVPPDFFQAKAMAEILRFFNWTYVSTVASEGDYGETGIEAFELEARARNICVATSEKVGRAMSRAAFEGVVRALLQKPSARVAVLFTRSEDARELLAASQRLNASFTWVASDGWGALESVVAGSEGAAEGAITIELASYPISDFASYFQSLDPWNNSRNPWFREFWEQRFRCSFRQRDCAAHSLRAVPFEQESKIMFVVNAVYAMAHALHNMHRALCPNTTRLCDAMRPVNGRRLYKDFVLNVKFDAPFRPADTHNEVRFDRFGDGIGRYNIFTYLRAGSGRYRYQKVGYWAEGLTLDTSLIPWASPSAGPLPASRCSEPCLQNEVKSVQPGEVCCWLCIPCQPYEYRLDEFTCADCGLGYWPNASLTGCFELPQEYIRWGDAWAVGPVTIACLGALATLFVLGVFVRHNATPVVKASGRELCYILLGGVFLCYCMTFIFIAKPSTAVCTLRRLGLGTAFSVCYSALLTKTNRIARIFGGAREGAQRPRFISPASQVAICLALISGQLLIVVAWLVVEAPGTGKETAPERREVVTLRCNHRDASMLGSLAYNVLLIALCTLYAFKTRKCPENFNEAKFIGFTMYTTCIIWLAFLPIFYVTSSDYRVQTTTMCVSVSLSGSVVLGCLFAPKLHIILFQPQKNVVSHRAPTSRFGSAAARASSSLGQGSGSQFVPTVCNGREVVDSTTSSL

[3] = Drug metabolism in human liver microsomes at 5 uM after 15 mins; type: ADME, Microsome; conditions: read-out: Drug metabolism
[4] = Drug metabolism in rat liver microsomes at 5 uM after 15 mins; type: ADME, Microsome; conditions: read-out: Drug metabolism
hERG = hERG (Homo sapiens, UniProt Q12809); test: Inhibition of human ERG expressed in HEK293 cells assessed as whole cell current at 3 uM after 5 mins by automated patch-clamp assay relative to control; type: cell-based; conditions: HEK293 cells expressing hERG
[5] = Drug level in Swiss mouse brain at 10 mg/kg, sc after 0.5 hrs; type: ADME, organism-based; set-up: dose 10 mg/kg, route subcutaneous; conditions: read-out: Drug uptake
[6] = Drug level in Swiss mouse brain at 10 mg/kg, sc after 1 hr; type: ADME, organism-based; set-up: dose 10 mg/kg, route subcutaneous; conditions: read-out: Drug uptake
[7] = Drug level in Swiss mouse brain at 10 mg/kg, sc after 1.5 hrs; type: ADME, organism-based; set-up: dose 10 mg/kg, route subcutaneous; conditions: read-out: Drug uptake
[8] = Ratio of drug level in brain to plasma in Swiss mouse at 10 mg/kg, sc after 1 hr; type: ADME, organism-based; set-up: dose 10 mg/kg, route subcutaneous; conditions: read-out: BPR
[9] = Aqueous solubility of the compound in 20% HP-beta-CD buffer at pH 4; type: physicochemical

hERG, sequence (Q12809 whole entry): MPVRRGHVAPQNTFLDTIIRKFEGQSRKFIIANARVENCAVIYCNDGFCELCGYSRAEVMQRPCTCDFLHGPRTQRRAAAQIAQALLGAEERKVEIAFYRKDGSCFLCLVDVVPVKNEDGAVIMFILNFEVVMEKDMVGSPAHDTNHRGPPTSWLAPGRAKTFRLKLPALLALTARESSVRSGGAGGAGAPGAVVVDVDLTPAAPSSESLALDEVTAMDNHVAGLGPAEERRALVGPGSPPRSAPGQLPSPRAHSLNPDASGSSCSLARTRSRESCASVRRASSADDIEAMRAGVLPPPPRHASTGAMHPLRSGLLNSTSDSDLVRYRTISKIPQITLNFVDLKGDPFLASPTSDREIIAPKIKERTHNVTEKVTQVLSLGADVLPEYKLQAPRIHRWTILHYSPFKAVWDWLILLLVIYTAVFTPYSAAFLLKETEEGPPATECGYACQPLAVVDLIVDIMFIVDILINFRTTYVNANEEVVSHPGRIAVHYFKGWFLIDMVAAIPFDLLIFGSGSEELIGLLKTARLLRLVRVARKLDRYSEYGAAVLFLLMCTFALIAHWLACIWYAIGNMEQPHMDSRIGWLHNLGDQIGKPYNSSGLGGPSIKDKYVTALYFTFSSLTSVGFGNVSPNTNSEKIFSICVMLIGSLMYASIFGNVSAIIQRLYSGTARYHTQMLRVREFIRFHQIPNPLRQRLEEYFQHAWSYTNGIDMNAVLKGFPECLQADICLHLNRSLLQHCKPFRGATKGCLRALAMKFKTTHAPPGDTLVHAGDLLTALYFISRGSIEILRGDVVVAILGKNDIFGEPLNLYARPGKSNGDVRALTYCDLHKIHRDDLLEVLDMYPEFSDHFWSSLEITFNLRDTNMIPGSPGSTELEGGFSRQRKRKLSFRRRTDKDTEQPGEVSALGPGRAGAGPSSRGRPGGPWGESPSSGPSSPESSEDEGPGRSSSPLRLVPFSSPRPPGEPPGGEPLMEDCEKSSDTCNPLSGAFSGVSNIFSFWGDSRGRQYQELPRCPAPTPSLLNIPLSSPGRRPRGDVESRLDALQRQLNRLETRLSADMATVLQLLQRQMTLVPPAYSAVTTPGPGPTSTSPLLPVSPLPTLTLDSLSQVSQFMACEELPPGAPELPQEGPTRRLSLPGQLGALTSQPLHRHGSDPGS

SMILES	EC50 [1] [nM]	Emax [2] [%]	metabolised at 0.25 h, 5 µM [3] [%]	metabolised at 0.25 h, 5 µM [4] [%]	inhibition at 5 min, 3 µM (hERG) [%]	concentration at 0.5 h [5] [ng/g]	concentration at 1 h [6] [ng/g]	concentration at 1.5 h [7] [ng/g]	Kp at 1 h [8]	solubility [9] [µg/mL]
Cc1ncccc1Oc1ccc(-c2ccn(CC3CC3)c(=O)c2C#N)cc1	1070	155	36	39	–	–	–	–	–	–
Cc1ccc(Oc2ccc(-c3ccn(CC4CC4)c(=O)c3C#N)cc2Cl)c(C)n1	64	196	25	27	89	750	357	240	0.1	–
CCCCn1ccc(-c2ccc(Oc3ccnc(C)c3)cc2F)c(C#N)c1=O	–	232	31	50	52	–	–	–	–	–
COc1ccc(-c2ccn(CCC(C)C)c(=O)c2C#N)cc1OC	260	242	26	–	–	–	–	–	–	–
Cc1cc(Oc2ccc(-c3ccn(CC4CC4)c(=O)c3C#N)cc2)ccn1	832	199	9	19	–	–	–	–	–	–
CC(C)CCn1ccc(-c2ccc(OCC3CC3)cc2)c(C#N)c1=O	290	192	17	16	–	–	–	–	–	–
CC(C)CCn1ccc(-c2ccc(Nc3ccncc3)cc2)c(C#N)c1=O	1480	186	25	33	91	–	–	–	–	–
CC(C)CCn1ccc(-c2ccccc2)c(C#N)c1=O	8510	117	36	100	–	–	–	–	–	–
CC(C)CCn1ccc(-c2ccc(Oc3cccnc3)cc2)c(C#N)c1=O	479	231	21	29	30	–	–	–	–	≥ 4000
CCCCn1ccc(-c2ccc(Oc3ccc(C)nc3C)cc2)c(C#N)c1=O	138	239	51	60	–	–	–	–	–	–
Cc1ccc(Oc2ccc(-c3ccn(CC4CC4)c(=O)c3C#N)cc2)c(C)n1	263	183	35	42	68	–	–	–	–	–
CCCCn1ccc(-c2ccc(Oc3ccnc(C)c3)c(Cl)c2)c(C#N)c1=O	166	245	35	51	–	–	–	–	–	–
CC(C)CCn1ccc(-c2ccc(OC3CCOCC3)c(Cl)c2)c(C#N)c1=O	186	197	36	54	–	–	–	–	–	–
CC(C)CCn1ccc(-c2ccc(OC3CCCC3)c(Cl)c2)c(C#N)c1=O	100	199	–	–	–	–	–	–	–	–
CCCCn1ccc(-c2ccc(Oc3ccc(C)nc3C)c(Cl)c2)c(C#N)c1=O	30	231	34	50	80	1480	830	281	0.4	–
CC(C)CCn1ccc(-c2ccc(Oc3ccccn3)cc2)c(C#N)c1=O	646	249	20	36	33	–	–	–	–	–
Cc1ncccc1Oc1ccc(-c2ccn(CC3CC3)c(=O)c2C#N)cc1Cl	230	180	37	22	75	–	–	–	–	–

SMILES	EC50 [1] [nM]	Emax [2] [%]	metabolised at 0.25 h, 5 µM [3] [%]	metabolised at 0.25 h, 5 µM [4] [%]	inhibition at 5 min, 3 µM (hERG) [%]	concentration at 0.5 h [5] [ng/g]	concentration at 1 h [6] [ng/g]	concentration at 1.5 h [7] [ng/g]	Kp at 1 h [8]	solubility [9] [µg/mL]
CCCCn1ccc(-c2ccc(Oc3ccnc(C)c3)cc2Cl)c(C#N)c1=O	933	187	34	47	–	–	–	–	–	–
Cc1cc(Oc2ccc(-c3ccn(CC4CCC4)c(=O)c3C#N)cc2)ccn1	126	233	36	44	80	–	–	–	–	–
CNc1ccc(-c2ccn(CCC(C)C)c(=O)c2C#N)cc1	460	186	–	–	–	–	–	–	–	–
COc1ccc(-c2ccn(CCC(C)C)c(=O)c2C#N)cc1F	1170	160	35	–	–	–	–	–	–	–
CC(C)CCn1ccc(-c2ccc(OCC3CC3)c(Cl)c2)c(C#N)c1=O	110	206	17	72	–	–	–	–	–	–
CC(C)CCn1ccc(-c2ccc(NC3CCOCC3)c(Cl)c2)c(C#N)c1=O	174	247	42	47	–	–	–	–	–	–
CC(C)CCn1ccc(-c2ccc(N3CCOCC3)cc2)c(C#N)c1=O	2040	236	38	48	–	–	–	–	–	–
COc1ccccc1-c1ccn(CCC(C)C)c(=O)c1C#N	> 10000	120	38	–	–	–	–	–	–	–
COc1cccc(-c2ccn(CCC(C)C)c(=O)c2C#N)c1	–	176	74	–	–	–	–	–	–	–
COc1ccc(-c2ccn(CCC(C)C)c(=O)c2C#N)cc1	1150	160	–	–	–	–	–	–	–	–
Cc1ccc(Oc2ccc(-c3ccn(CCC(C)C)c(=O)c3C#N)cc2)c(C)n1	100	246	59	49	–	–	–	–	–	–
Cc1ncccc1Oc1ccc(-c2ccn(CCC(C)C)c(=O)c2C#N)cc1	275	256	57	45	36	–	–	–	–	–
COc1ccc(-c2ccn(CCC(C)C)c(=O)c2C#N)cc1Cl	363	200	43	99	–	–	–	–	–	–
CCCCn1ccc(-c2ccc(Oc3cccnc3C)cc2)c(C#N)c1=O	347	228	30	50	31	822	294	100	0.3	–
CCCCn1ccc(-c2ccc(Oc3cc(C)nc(C)c3)c(F)c2)c(C#N)c1=O	372	217	16	41	71	–	–	–	–	–
CCCCn1ccc(-c2ccc(Oc3cccnc3C)c(Cl)c2)c(C#N)c1=O	100	236	29	60	56	–	–	–	–	–
